Data on one substance can be found in article PMC3664642, “A Peptide against Soluble Guanylyl Cyclase α1: A New Approach to Treating Prostate Cancer” (PLoS ONE, 2013).

“Also recorded” adds a separate entry of the source. Where no end group is shown, it is not given here.

In one data set the test system is DNA damage in C81 cells. Nature of the data set: Comet assay (DNA damage). The data set is classed as cell-based. The conditions noted are these: C81, 1 hr, Fig. 4C. On the procedure: C81 cells were treated with Peptide A-8R for 1 hour, following a 2-hour pretreatment with 5 mM NAC or Vehicle, and trypsinized, and mixed with Comet LM-Agarose (CometAssay, […]) and transferred to slides. Electrophoresis and Sybr-Green staining was carried out according to manufacturer’s protocol.
Figure 4 Peptide A-8R kills prostate cancer cells by mediating ROS generation. (A) C81 cells were treated with Vehicle or different µMolar concentrations of Peptide A-8R and without or with 0–5 mM NAC and monitored for ROS generation after 0–30 min as measured by fluorescence intensity (FI). Bar graphs represent averages of three independent experiments plus standard deviations. Note that asterisks on bar graphs found with NAC are compared to equivalent data without NAC. (B) C81 cells were treated with Vehicle or different concentrations of Peptide A-8R, as shown, and 0–5 mM NAC, as shown, and monitored for cell number after 0–6 days of incubation as measured by MTT assay. Data points represent averages of three independent experiments plus standard deviations. Asterisks indicate statistical significance (P<0.04). (C) C81 cells were treated with Vehicle or different concentrations of Peptide A-8R, as shown, and with or without 5 mM NAC, as shown, and monitored DNA damage after 1 hr incubation as measured by Comet assay.

Another data set deals with C81 cells. Kind of data set: Proliferation/cytotoxicity, castration-resistant C81 cells (MTT). The data set is classed as cell-based. Conditions: different concentrations; Fig. 3C; averages of three independent experiments; P<0.03 vs Vehicle. On the procedure: (§1) LNCaP, C81, PC-3 and Cos cells were grown as previously described. CWR-22Rv1 cells were cultured in RMPI-1640 medium with 10% FBS and 50 µg/ml Gentamicin (Gibco). Control siRNA, sGCα1 siRNA and AKT siRNA (Dharmacon) at 50 nM final concentration was transfected into cells using Lipofectamine siMAX (Invitrogen).
(§2) For proliferation, cells were grown in medium containing 2% FBS extracted with dextran-coated charcoal (DCC). 48 hours later, ethanol or 1 nM R1881 was added to the cells followed by peptide treatment. The MTT assay (Sigma) was used as before to determine cell number. For apoptosis, 5000 cells were seeded in 96-well plates and treated with Vehicle (DMSO), Peptide A-8R (25 µM), Etoposide (50 µM) (Sigma) at different time points. The Caspase (3/7) activity was measured using Apo-ONE Homogeneous Caspase-3/7 assay kit (Promega). PARP cleavage was also used to measure apoptosis, and is described below.
(§3) Vehicle or different concentrations of Peptide A-8R or C-8R, as shown, was added to (A) hormone-dependent LNCaP cells grown in 2% serum without or with 1 nM R1881, (C) castration-resistant C81 or CWR-22Rv1 cells, or (E) sGCα1-deficient PC-3 or Cos cells. Cell number was measured after various days of incubation. Data points represent averages of three independent experiments plus standard deviations. […]

The nature of data set [1]: Behavior and weight of mice in the animal studies. It is filed as in vivo, mouse. On the procedure: (§4) 2×10^6 C81 cells in 50 µL of growth medium was mixed with 50 µL Matrigel (BD Biosciences) and injected into both flanks of 4–6-week old SCID male mice. When tumor sizes reached 200 mm^3, 50 µL of Peptide A-8R (40 mg Peptide A-8R/Kg of animal) or Vehicle (DMSO) was directly injected into the tumors every other day. Injections were stopped after 5 times and tumors were measured every 3 days. Mice were euthanized after 3 weeks and tumors were excised. All procedures were approved by the University of Toledo Division of Lab Animal Recourses (DLAR). Protein extracts were prepared by boiling the tumor tissue in 3× SDS buffer, and evaluated by SDS-PAGE gel.
(§5) This study was carried out in strict accordance with the recommendations in the Guide for the Care and Use of Laboratory Animals of the National Institutes of Health. The protocol was approved by the Institutional Animal Care and Use Committee of the University of Toledo (Protocol Number: 106418). During the experiments all animals were monitored daily for morbidity and all efforts were made to minimize suffering. At the end of the study all animals were euthanized using inhalation of carbon dioxide, after which surgery was performed to excise tumors from all animals.

Another data set concerns C81 xenograft tumors. Kind of data set: C81 mouse xenograft tumor study. The data set is classed as in vivo. On the procedure: as §4, §5
(A) Mouse xenograft tumors derived from C81 cells were treated with Vehicle or Peptide A-8R, after which they were allowed to grow for an additional three weeks without treatment. Data points represent average tumor size of three animals for each treatment plus standard deviations. Note that there is a statistical difference (P<0.00004) in average tumor size for each day of tumor measurement. Arrow represents day of last injection of Vehicle or Peptide A-8R. […] Bar graphs represent averages of each set of three tumors plus standard deviations. Asterisks indicate statistical significance (P<0.02). (C) Two tumors, one on each flank of the same animal, were treated with either Vehicle or Peptide A-8R.

The next data set relates to AKT. Nature of the data set: Western blot of AKT in cells. The data set is classed as cell-based. The conditions noted are these: LNCaP, 25 µM, Fig. S4A. On the procedure:
Western blotting was performed as described using primary antibodies against sGCα1 (Cayman Chemical), pan-Akt (Cell Signaling Technology), phospho-AKT (S473, T308) (Cell Signaling Technology), phospho-PDK1 (Cell Signaling Technology), phospho-GSK-3β (Cell Signaling Technology), PARP (Cell Signaling Technology), and β-Actin (Abcam).
Supplementary file pone.0064189.s004.tif: Figure S4 Peptide A-mediated down-regulation of AKT is not involved in its cytotoxicity to prostate cancer cells. Western blotting was used to measure the levels of total AKT or Ser-473-phosphorylated AKT in (A) LNCaP cells treated with Vehicle, Peptide A-8R, or Peptide C-8R (25 µM) for different times, as shown, (B) mouse xenograft tumors treated with Vehicle or Peptide A-8R, or (C) LNCaP cells infected with Empty or AKT-expressing adenovirus and treated with Peptide A-8R at different concentration, as shown, for 30 min. Note that β-actin was used to control for protein loading. (D) LNCaP cells, infected with Empty or AKT-expressing adenovirus, were grown in 10% serum under different concentrations of Peptide A-8R, as shown. Cell number was measured after 0–6 days of incubation. Data points represent averages of three independent experiments plus standard deviations. (TIF) Click here for additional data file.

In a further data set the test system is PC-3 cells. Kind of data set: Proliferation/cytotoxicity, sGCα1-deficient PC-3 cells (MTT). It is filed as cell-based. Conditions: different concentrations, Fig. 3E. On the procedure:
as §1, §2, §3

Regarding Ac-TFCKAFPFHIIRRRRRRRR [Peptide A-8R], the “DNA damage (Comet)” value in the data set on DNA damage in C81 cells (10 µM) is “induced weakly”; with DNA damage in C81 cells (25 µM), “much more strongly”; in the data set with DNA damage in C81 cells (50 µM), “does not elicit a Comet signal”. The “suppression of growth of C81 cells” value with C81 cells is given as “very effective at suppressing the growth of C81 cells (Fig. 3C), matching the effect on hormone-dependent LNCaP cells”. The “effect on behavior or weight of mice” value in data set [1] is listed as “no effect on the behavior or weight of the mice”. The “tumor growth during five injections, C81 xenograft” value in the data set with C81 xenograft tumors (40 mg/Kg intratumoral, every other day, 5 times, Fig. 6A, 6B, three animals per treatment, P<0.00004) was “stopped tumor growth and actually caused some tumor regression during the five injections of peptide”. Also, in the data set on C81 xenograft tumors (intra-tumoral injection), the “anti-tumor activity, C81 xenograft (summary)” value is “able to stop tumor growth; also recorded: blocks the growth of castration-resistant prostate tumors; also recorded: strong anti-cancer activity”. Moreover, the “tumor growth three weeks after treatment stopped, C81 xenograft” value in the data set on C81 xenograft tumors (three weeks after last injection, Vehicle tumors grew more than three-fold, Fig. 6A) was “did not grow at all three weeks after Peptide treatment was stopped”. Further, the “tumor size in same animal, Peptide- vs Vehicle-treated flank” value with C81 xenograft tumors (two tumors, one per flank of same mouse, Fig. 6C) was “markedly smaller than the Vehicle-treated tumor”. Besides, the “effect on phosphorylated AKT level” value with AKT (Ser-473) is reported as “similarly affected”. Also, the “effect on total AKT protein level” value in the data set on AKT (time course, 50 min) is “strong, time-dependent negative effect on the AKT protein, such that by 50 min most of the measurable AKT is gone; also recorded: significantly reduces AKT protein levels”. In the data set on PC-3 cells, the “effect on PC-3 cells” value is listed as “little to no effect”.
